Source: patent US8940310B2, “Methods of treatment using TLR7 and/or TLR9 inhibitors” (Dynavax Technologies Corporation, priority 2010, dated 2015)
Marks after values point to notes of the source that are not given here. [I] = hypoxanthine (inosine)

Legend:
[1] = Monomer and tetramer formation of IRPs, size-exclusion HPLC; assay type: physicochemical; conditions: 100 mg/mL in PBS and 0.5M KCl, room temperature
Method: Solutions were prepared of the by mixing 100 mg/mL of the IRP sequences in PBS and 0.5M KCl and storing at room temperature for three to five weeks. The solutions were subsequently analyzed by size-exclusion HPLC.

[2] = High dosages of IRPs in mice (weight, histology); assay type: in vivo, BALB/c mice; conditions: for Liver: Liver changes, number of animals / Liver: Mixed cell infiltration, number of animals / Liver: No significan changes, number of animals / Right Kidney: No significant changes, number of animals / Right Kidney: Tubular basophilia, number of animals / Right Kidney: Tubular changes, number of animals: 6 animals; for Heart: No significant changes, number of animals: tissue missing in two animals
Method: To test the activity of IRPs at high dosages in mice, IRPs or a control (saline) were subcutaneously administered to BALB/c mice at a dosage of 4 mg/kg, 20 mg/kg, 50 mg/kg, or 100 mg/kg on days 1, 4, 7, and 10 (n=5 per group). Mice were weighed prior to administration and on days 2, 4, 7, 9, and 11. Serum cytokines were assayed at two hours post the first and third injections and 24 hours post the fourth injection. Organs were harvested at the end of the study, and organ weights and tissues levels of the oligonucleotides were determined. In addition, histological evaluation of the liver, kidney, and heart was performed.
Mice were weighed prior to administration and on days 1, 3, 4, 6, 7, and 9. Organs were harvested at the end of the study, and organ weights and tissues levels of the oligonucleotides were determined. In addition, histological evaluation of the liver, kidney, and heart was performed.

[3] = High dosages of IRPs in rats (weight, deaths, histology); assay type: in vivo, Sprague Dawley rats; conditions: for Heart: Cell Vacuolation, number of animals / Heart: Hemorrhage, number of animals / Heart: Mononuclear Cell Infiltration, number of animals / Heart: Necrosis, number of animals / Heart: No significant changes, number of animals / Liver: Liver changes, number of animals / Liver: Mixed cell infiltration, number of animals / Liver: Necrosis, number of animals / Liver: No significant changes, number of animals / Liver: Vacuolation, number of animals / Right Kidney: Hydronephrosis, number of animals / Right Kidney: Mineralization, number of animals / Right Kidney: Necrosis, number of animals / Right Kidney: No significant changes, number of animals / Right Kidney: Tubular basophilia, number of animals / Right Kidney: Tubular changes, number of animals: 6 animals
Method: To test the activity of IRPs at high dosages in rats, IRPs (SEQ ID NO:42 and SEQ ID NO:109) or a control (PBS) were subcutaneously administered to 8-9 weeks old, […], 3, 6, and 9 (n=6 per group). Rats were weighed prior to administration and on days 1, 3, 4, 6, 7, and 9. Organs were harvested at the end of the study, and organ weights and tissues levels of the oligonucleotides were determined. In addition, histolocial evaluation of the liver, kidney, and heart was performed.
Rats were weighed prior to administration and on days 1, 3, 6, 7, and 9. Organs were harvested at the end of the study, and organ weights and tissues levels of the oligonucleotides were determined. In addition, histological evaluation of the liver, kidney, and heart was performed.

[4] = tested on: human B-cells; assay: Human B-cells cultured in the presence of IRPs, IL-6
Method: For the human B-cell assay, B-cells were purified from total blood cells obtained from healthy donors using magnetic beads (CD19 positive). Cells were resuspended in fresh medium (RPMI 1640 with 10% fetal calf serum, 50 units/mL penicillin, 50 μg/mL streptomycin, and 2 mM glutamine). At 48 hours, supernatants were collected and cytokine levels, IL-6, were measured using immunoassay.
To further investigate the effect of IRPs on B-cell stimulatory activity, a wide variety of IRP sequences were assayed for IL-6, along with positive and negative controls. The experiment was performed as described in Example 1 using doses of IRP of either 4.0 μM or 2.0 μM. The positive control was an immunostimulatory sequence (ISS) with SEQ ID NO:157. […] The results are presented as the average normalized IL-6 response over several experiments.

[5] = Solubility of spacer measured as dialcohol precursor; assay type: physicochemical; conditions: dodecyl spacer measured as dialcohol precursor
[6] = tested on: PDC; conditions: 129 mice, conventional and plasmacytoid DC, spleen and blood
[7] = rat, 10 mg/kg, 0 = no change to 4 = severe
[8] = rat, 90 mg/kg, 0 = no change to 4 = severe
[9] = Experiment # 3, Max Conc 4.0 uM
[10] = 50 mg/kg, 0 = no change to 4 = severe
[11] = 100 mg/kg, 0 = no change to 4 = severe

## 5′-UGC TGC TCC TTG AGI GGT TGT TTG T-3′ (DNA UGCTGCTCCTTGAGNGGTTGTTTGT; DNA, [I] at 15, backbone and methylation of C not given here) [SEQ ID NO:109]
[1]; five weeks
  fraction in monomer form: 100%
[1]; three weeks
  fraction in monomer form: 100%
[2]; 100 mg/kg SC days 1, 4, 7, 10
  weight loss as % gain versus pre-dose: provoked weight loss
[3]; rat, 10 mg/kg
  Kidney: tubular basophilia: occurred
  Heart: Cell Vacuolation, number of animals: 0
  Heart: Hemorrhage, number of animals: 0
  Heart: Mononuclear Cell Infiltration, number of animals: 0
  Heart: Necrosis, number of animals: 0
  Heart: No significant changes, number of animals: 6
  Liver: Liver changes, number of animals: 6
  Liver: Mixed cell infiltration, number of animals: 6
  Liver: Necrosis, number of animals: 0
  Liver: No significant changes, number of animals: 0
  Liver: Vacuolation, number of animals: 0
  Right Kidney: Hydronephrosis, number of animals: 0
  Right Kidney: Mineralization, number of animals: 0
  Right Kidney: Necrosis, number of animals: 0
  Right Kidney: No significant changes, number of animals: 0
  Right Kidney: Tubular basophilia, number of animals: 6
  Right Kidney: Tubular changes, number of animals: 6
[3]; rat, 10 mg/kg or 100 mg/kg SC days 0, 3, 6, 9
  organ weight of the liver, heart, kidney, or spleen: no significant difference
[3]; [7]
  Liver: Liver changes, mean severity score: 1.0
  Liver: Mixed cell infiltration, mean severity score: 2.5
  Right Kidney: Tubular basophilia, mean severity score: 1.5
  Right Kidney: Tubular changes, mean severity score: 1.0
[3]; rat, 90 mg/kg
  Heart: cellular vacuolation: present in some animals
  Heart: hemorrhage and necrosis: noted
  Kidney: tubular basophilia: occurred
  Liver: hepatocellular cytoplasmic vacuolation: hepatocellular cytoplasmic vacuolation
  Liver: hepatocellular necrosis: hepatocellular necrosis
  Renal necrosis: noted
  Heart: Cell Vacuolation, number of animals: 5
  Heart: Hemorrhage, number of animals: 1
  Heart: Mononuclear Cell Infiltration, number of animals: 0
  Heart: Necrosis, number of animals: 1
  Heart: No significant changes, number of animals: 0
  Liver: Liver changes, number of animals: 6
  Liver: Mixed cell infiltration, number of animals: 6
  Liver: Necrosis, number of animals: 6
  Liver: No significant changes, number of animals: 0
  Liver: Vacuolation, number of animals: 6
  Right Kidney: Hydronephrosis, number of animals: 0
  Right Kidney: Mineralization, number of animals: 1
  Right Kidney: Necrosis, number of animals: 1
  Right Kidney: No significant changes, number of animals: 0
  Right Kidney: Tubular basophilia, number of animals: 5
  Right Kidney: Tubular changes, number of animals: 5
[3]; rat, 90 mg/kg SC, n=6
  deaths two days after the first dose: one rat died
[3]; [8]
  Heart: Cell Vacuolation, mean severity score: 1.8
  Heart: Hemorrhage, mean severity score: 3.0
  Heart: Necrosis, mean severity score: 1.0
  Liver: Liver changes, mean severity score: 3.5
  Liver: Mixed cell infiltration, mean severity score: 2.0
  Liver: Necrosis, mean severity score: 2.0
  Liver: Vacuolation, mean severity score: 2.0
  Right Kidney: Mineralization, mean severity score: 1.0
  Right Kidney: Necrosis, mean severity score: 4.0
  Right Kidney: Tubular basophilia, mean severity score: 3.0
  Right Kidney: Tubular changes, mean severity score: 2.0
[3]; rat, 100 mg/kg
  total weight and % weight gain/loss: decrease in total weight and % weight gain/loss
[4]; Experiment # 1, Max Conc 4.0 uM
  Normalized IL-6 Response (Percentage of Positive Control): 58%
[4]; Experiment # 2, Max Conc 4.0 uM
  Normalized IL-6 Response (Percentage of Positive Control): 52%
[4]; [9]
  Normalized IL-6 Response (Percentage of Positive Control): 39%
[4]; Experiment # 4, Max Conc 4.0 uM
  Normalized IL-6 Response (Percentage of Positive Control): 45%
[4]; Experiment # 5, Max Conc 4.0 uM
  Normalized IL-6 Response (Percentage of Positive Control): 53%
[4]; Experiment # 6, Max Conc 4.0 uM
  Normalized IL-6 Response (Percentage of Positive Control): 58%
[4]; Experiment # 7, Max Conc 4.0 uM
  Normalized IL-6 Response (Percentage of Positive Control): 45%
[4]; Experiment # 8, Max Conc 2.0 uM
  Normalized IL-6 Response (Percentage of Positive Control): 42%
[4]; Experiment # 9, Max Conc 2.0 uM
  Normalized IL-6 Response (Percentage of Positive Control): 64%
[4]; Experiment # 10, Max Conc 2.0 uM
  Normalized IL-6 Response (Percentage of Positive Control): 63%
[4]; Experiment # 11, Max Conc 2.0 uM
  Normalized IL-6 Response (Percentage of Positive Control): 54%
[4]; human B-cells with IRP alone, 48 hours, FIGS. 1A-B
  B-cell response as evidenced by IL-6 produced: induced a B-cell response

## OCCCCCCCCCCCCO [1,12-dihydroxydodecane]
[5]
  solubility: < 5 mg/mL

## 5′-TCGTCGAACGTTCGAGATGAT-3′ [SEQ ID NO:158, reference compound]
[6]
  protection from GC-induced cell death: afforded significant protection from GC-induced cell death

## 5′-TGC TCC TGG AGI GGT TG-HEG-T-3′ (DNA TGCTCCTGGAGNGGTTGNT; inosine, internal HEG spacer, chemistry not fully specified) [SEQ ID NO:143]
[1]; five weeks
  fraction in monomer form: 100%
[2]; 50 mg/kg
  Heart: Chronic inflammation, number of animals: 2
  Heart: Mineralization, number of animals: 1
  Liver: Liver changes, number of animals: 6
  Liver: Mixed cell infiltration, number of animals: 6
  Liver: No significan changes, number of animals: 0
  Right Kidney: No significant changes, number of animals: 5
  Right Kidney: Tubular basophilia, number of animals: 1
  Right Kidney: Tubular changes, number of animals: 0
  Heart: No significant changes, number of animals: 1**
[2]; [10]
  Heart: Chronic inflammation, mean severity score: 2.0
  Heart: Mineralization, mean severity score: 4.0
  Liver: Liver changes, mean severity score: 2.0
  Liver: Mixed cell infiltration, mean severity score: 3.0
  Right Kidney: Tubular basophilia, mean severity score: 2.0
[2]; 100 mg/kg
  Heart: Chronic inflammation, number of animals: 0
  Heart: Mineralization, number of animals: 1
  Liver: Liver changes, number of animals: 0
  Liver: Mixed cell infiltration, number of animals: 1
  Liver: No significan changes, number of animals: 5
  Right Kidney: No significant changes, number of animals: 6
  Right Kidney: Tubular basophilia, number of animals: 0
  Right Kidney: Tubular changes, number of animals: 0
  Heart: No significant changes, number of animals: 3**
[2]; [11]
  Heart: Mineralization, mean severity score: 3.0
  Liver: Mixed cell infiltration, mean severity score: 1.0
[3]; rat histology
  toxicity profile: favorable toxicity profiles
[3]; rat, 10 mg/kg
  Heart: Cell Vacuolation, number of animals: 0
  Heart: Hemorrhage, number of animals: 0
  Heart: Mononuclear Cell Infiltration, number of animals: 0
  Heart: Necrosis, number of animals: 0
  Heart: No significant changes, number of animals: 6
  Liver: Liver changes, number of animals: 0
  Liver: Mixed cell infiltration, number of animals: 5
  Liver: Necrosis, number of animals: 0
  Liver: No significant changes, number of animals: 1
  Liver: Vacuolation, number of animals: 2
  Right Kidney: Hydronephrosis, number of animals: 0
  Right Kidney: Mineralization, number of animals: 1
  Right Kidney: Necrosis, number of animals: 0
  Right Kidney: No significant changes, number of animals: 0
  Right Kidney: Tubular basophilia, number of animals: 0
  Right Kidney: Tubular changes, number of animals: 6
[3]; [7]
  Liver: Mixed cell infiltration, mean severity score: 1.4
  Liver: Vacuolation, mean severity score: 1.5
  Right Kidney: Mineralization, mean severity score: 2.0
  Right Kidney: Tubular changes, mean severity score: 1.1
[3]; rat, 90 mg/kg
  Heart: cellular vacuolation: present in some animals
  Kidney: tubular basophilia: occurred
  Liver: hepatocellular cytoplasmic vacuolation: hepatocellular cytoplasmic vacuolation
  Heart: Cell Vacuolation, number of animals: 5
  Heart: Hemorrhage, number of animals: 0
  Heart: Mononuclear Cell Infiltration, number of animals: 0
  Heart: Necrosis, number of animals: 0
  Heart: No significant changes, number of animals: 1
  Liver: Liver changes, number of animals: 6
  Liver: Mixed cell infiltration, number of animals: 1
  Liver: Necrosis, number of animals: 0
  Liver: No significant changes, number of animals: 0
  Liver: Vacuolation, number of animals: 5
  Right Kidney: Hydronephrosis, number of animals: 0
  Right Kidney: Mineralization, number of animals: 2
  Right Kidney: Necrosis, number of animals: 0
  Right Kidney: No significant changes, number of animals: 0
  Right Kidney: Tubular basophilia, number of animals: 3
  Right Kidney: Tubular changes, number of animals: 6
[3]; [8]
  Heart: Cell Vacuolation, mean severity score: 1.0
  Liver: Liver changes, mean severity score: 2.1
  Liver: Mixed cell infiltration, mean severity score: 1.0
  Liver: Vacuolation, mean severity score: 2.7
  Right Kidney: Mineralization, mean severity score: 2.0
  Right Kidney: Tubular basophilia, mean severity score: 1.0
  Right Kidney: Tubular changes, mean severity score: 1.8
[4]; [9]
  Normalized IL-6 Response (Percentage of Positive Control): 5%
[4]; FIG. 1C, percent IL-6 from CpG-ISS
  B-cell stimulatory activity: low B-cell stimulatory activity
